From patent US20060223837A1 (priority 2005, published 2006)
pEC50, pIC50, pKi: −log10 of the molar value. Structures can show the parent of a compound that is named as a salt.

Columns and labels:
[1] = target: T1, human VR1 (Homo sapiens, UniProt Q8NER1); assay: Human VR1 [3H]RTX binding assay; conditions: for h Binding % I (1 μM) / inhibition at 1 µM: inhibition of [3H]RTX binding at 1 μM; for pKi: [3H]RTX binding, HEK293 membranes; for inhibition at 1 µM: read-out: h Binding % I (1 μM)
T1 construct: expressed in transfected cells; host or cells: HEK293
T1 sequence (Q8NER1 whole entry): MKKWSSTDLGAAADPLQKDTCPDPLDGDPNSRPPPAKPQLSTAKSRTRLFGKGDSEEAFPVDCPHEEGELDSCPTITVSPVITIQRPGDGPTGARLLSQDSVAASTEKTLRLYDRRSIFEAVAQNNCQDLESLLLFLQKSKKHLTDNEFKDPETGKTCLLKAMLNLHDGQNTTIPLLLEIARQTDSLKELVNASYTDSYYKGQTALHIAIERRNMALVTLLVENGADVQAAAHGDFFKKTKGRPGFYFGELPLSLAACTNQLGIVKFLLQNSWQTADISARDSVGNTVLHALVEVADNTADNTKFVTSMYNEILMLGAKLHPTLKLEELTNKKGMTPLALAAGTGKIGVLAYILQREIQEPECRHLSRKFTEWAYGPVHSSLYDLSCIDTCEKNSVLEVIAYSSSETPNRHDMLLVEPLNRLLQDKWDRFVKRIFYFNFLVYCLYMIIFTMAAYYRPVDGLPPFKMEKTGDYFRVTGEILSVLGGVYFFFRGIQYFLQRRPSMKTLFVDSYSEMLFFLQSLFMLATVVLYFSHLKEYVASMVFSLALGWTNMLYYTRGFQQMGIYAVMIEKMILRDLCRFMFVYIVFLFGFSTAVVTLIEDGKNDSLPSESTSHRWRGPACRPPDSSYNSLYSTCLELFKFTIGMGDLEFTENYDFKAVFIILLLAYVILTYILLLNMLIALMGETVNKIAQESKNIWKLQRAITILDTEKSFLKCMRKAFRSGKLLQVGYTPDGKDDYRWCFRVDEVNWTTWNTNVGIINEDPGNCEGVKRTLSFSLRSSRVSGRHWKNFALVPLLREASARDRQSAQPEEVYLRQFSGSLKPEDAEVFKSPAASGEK
Method: Compounds of the present invention were tested for their ability to inhibit the binding of tritiated resiniferatoxin ([^3H] RTX) to human VR1 receptors in a [^3H] RTX binding assay, as previously described (Zhang, Sui-Po. Improved ligand binding assays for vanilloid receptors. PCT Int. Appl. (2002), WO 0233411 A1 20020425 AN 2002:315209; Grant, Elfrida R., Dubin, Adrienne E., Zhang, Sui-Po, Zivin, Robert A., Zhong, Zhong Simultaneous intracellular calcium and sodium flux imaging in human VR1-transfected human embryonic kidney cells: a method to resolve ionic dependence of VR1-mediated cell death. J. Pharmacol. Exp. ther., 2002, 300(1), 9-17.) HEK293 cells were transfected with human VR1 and washed with Hank's balanced Salt Solution, dissociated with cell dissociation buffer (Sigma), and then centrifuged at 1000× g for 5 min. Cell pellets were homogenized in cold 20 mM HEPES buffer (pH 7.4), containing 5.8 mM NaCl, 320 mM sucrose, 2 mM MgCl2, 0.75 CaCl2 and 5 mM KCl and centrifuged at 1000× g for 15 min. The resultant supernate was then centrifuged at 40000× g for 15 min. The pelleted membranes were stored in a freezer at −80 C.
Approximately 120 μg protein/ml from membranes were incubated with indicated concentrations of [^3H]RTX in 0.5 ml of the HEPES buffer (pH 7.4) containing 0.25 mg/mL fatty acid-free bovine serum albumin at 37 C for 60 min. After cooling the reaction mixture to 4 C, 0.1 mg (x-acid glycoprotein was added to each sample, which was incubated at 4 C for 15 min and then centrifuged at 18500× g for 15 min. The tip of the microcentrifuge tube containing the pellet was cut off. Bound radioactivity was quantified by scintillation counting. Non-specific binding was assessed in the presence of 200 nM unlabeled resiniferatoxin.
Data were calculated according to the equation: % inhibtion=(total binding−binding)*100/(total binding−non specific binding).
Ki values were calculated based on an average of duplicate measurements using a GraphPad Prism program.

[2] = target: T1, human VR1; assay: Human VR1 functional assay (FLIPR intracellular Ca2+); format: cell-based; conditions: for h % I (10 μM) / h % I (5 μM) / inhibition at 1 µM / inhibition at 5 µM: inhibition of capsaicin response; for % Response Relative to EC80 of Capsaicin (12 μM) / Emax at 12 µM / Emax at 6 µM: agonist response; for Emax at 12 µM: read-out: % Response Relative to EC80 of Capsaicin (12 μM); for Emax at 6 µM: read-out: % Response Relative to EC80 of Capsaicin (6 μM); for pEC50: agonist-induced Ca2+ increase, read-out: h EC50; for inhibition at 1 µM: read-out: h % I (1 μM); for pIC50: antagonism of capsaicin-induced Ca2+ increase, read-out: h IC50; for inhibition at 5 µM: read-out: h % I (5 μM)
Procedure, shortened: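 HEK293 cells expressing human VR1, loaded with Calcium 3 dye, were exposed to test compounds for 5 min while FLIPR recorded intracellular Ca2+, then challenged with capsaicin at ~80% maximal response ([…]). EC50 or IC50 came from dose-response curves on quadruplicate-well means.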

Row | Compound | h Binding % I (1 μM) [1] [%] | pKi [1] | inhibition at 1 µM [1] [%] | Emax at 12 µM [2] [%] | other results
1 | CC(C)(C)c1ccc(CCC(=O)Nc2ccc(-c3cccc(C(N)=O)c3)cc2CO)cc1 [Cpd 69] | 1 | – | – | – | h % I (10 μM) [2]: 6%
2 | CC(=O)Nc1cccc(-c2ccc(NC(=O)CCc3ccc(C(C)(C)C)cc3)c(CO)c2)c1 [Cpd 70] | 1 | – | – | – | h % I (10 μM) [2]: 7%
3 | CC(C)(C)c1ccc(CCC(=O)Nc2ccc(-c3cccc(O)c3)cc2CO)cc1 [Cpd 71] | 1 | – | – | – | h % I (10 μM) [2]: 5%
4 | CC(C)(C)c1ccc(CCC(=O)Nc2ccc(-c3cccc(C(N)=O)c3)c(C(=O)O)c2)cc1 [Cpd 72] | 1 | – | – | – | h % I (10 μM) [2]: 11%
5 | CC(=O)Nc1cccc(-c2ccc(NC(=O)CCc3ccc(C(C)(C)C)cc3)cc2C(=O)O)c1 [Cpd 73] | 1 | – | – | – | h % I (10 μM) [2]: 20%
6 | CC(C)(C)c1ccc(CCC(=O)Nc2ccc(-c3cccc(O)c3)c(C(=O)O)c2)cc1 [Cpd 74] | 1 | – | – | – | h % I (10 μM) [2]: 8%
7 | CC(=O)Nc1cccc(-c2ccc(NC(=O)CCc3ccc(C(F)(F)F)cc3)cc2)c1 [Cpd 75] | 6 | – | – | – | % Response Relative to EC80 of Capsaicin (12 μM) [2]: 82%
8 | O=C(CCc1ccc(C(F)(F)F)cc1)Nc1ccc(-c2ccccc2O)cc1 [Cpd 76] | – | 6.38 | 50 | 77 | –
9 | O=C(CCc1ccc(C(F)(F)F)cc1)Nc1ccc(-c2cccc(O)c2)cc1 [Cpd 77] | – | 6.87 | 72 | 88 | –
10 | O=C(CCc1ccc(C(F)(F)F)cc1)Nc1ccc(-c2ccc(O)cc2)cc1 [Cpd 78] | – | 6.54 | 56 | 70 | –
11 | O=C(CCc1ccc(C(F)(F)F)cc1)Nc1ccc(-c2cccc(CO)c2)cc1 [Cpd 79] | 19 | – | – | – | % Response Relative to EC80 of Capsaicin (12 μM) [2]: 74%
12 | O=C(CCc1ccc(C(F)(F)F)cc1)Nc1ccc(-c2ccc(CO)cc2)cc1 [Cpd 80] | – | 6.57 | 62 | 77 | –
13 | CC(=O)Nc1cccc(-c2ccc(NC(=O)CCc3ccc(C(C)(C)C)cc3)c3ccccc23)c1 [Cpd 81] | 6 | – | – | – | h % I (5 μM) [2]: 11%
14 | CC(C)(C)c1ccc(CCC(=O)Nc2ccc(-c3cccc(O)c3)c3ccccc23)cc1 [Cpd 82] | 28 | – | – | – | h % I (5 μM) [2]: 39%
15 | NC(=O)c1cccc(-c2ccc(NC(=O)CCc3ccc(C(F)(F)F)cc3)c3ccccc23)c1 [Cpd 83] | 1 | – | – | – | h % I (5 μM) [2]: 31%
16 | CC(=O)Nc1cccc(-c2ccc(NC(=O)CCc3ccc(C(F)(F)F)cc3)c3ccccc23)c1 [Cpd 84] | 1 | – | – | – | h % I (5 μM) [2]: 43%
17 | O=C(CCc1ccc(C(F)(F)F)cc1)Nc1ccc(-c2cccc(O)c2)c2ccccc12 [Cpd 85] | 1 | – | – | – | h % I (5 μM) [2]: 21%
18 | CC(C)(C)c1ccc(CCC(=O)Nc2ccc(-c3ccccc3O)c(CO)c2)cc1 [Cpd 92] | – | 7.05 | – | – | Emax at 6 µM [2]: 133%; pEC50 [2]: 6.95; inhibition at 1 µM [2]: 84%
19 | CC(C)(C)c1ccc(CCC(=O)Nc2ccc(-c3cccc(O)c3)c(CO)c2)cc1 [Cpd 93] | – | 7.47 | – | – | Emax at 6 µM [2]: 153%; pEC50 [2]: 7.19; inhibition at 1 µM [2]: 93%
20 | CC(C)(C)c1ccc(CCC(=O)Nc2ccc(-c3ccc(O)cc3)c(CO)c2)cc1 [Cpd 94] | – | 7.38 | – | – | Emax at 6 µM [2]: 115%; pEC50 [2]: 7.03; inhibition at 1 µM [2]: 92%
21 | CC(C)(C)c1ccc(CCC(=O)Nc2ccc(-c3ccc(CO)cc3)c(CO)c2)cc1 [Cpd 96] | – | 7.11 | – | – | Emax at 6 µM [2]: 65%; inhibition at 1 µM [2]: 91%
22 | Cc1cc(NC(=O)CCc2ccc(C(C)(C)C)cc2)ccc1-c1ccccc1O [Cpd 97] | – | 7.82 | – | – | pIC50 [2]: 6.64; inhibition at 1 µM [2]: 95%; inhibition at 5 µM [2]: 104%
23 | Cc1cc(NC(=O)CCc2ccc(C(C)(C)C)cc2)ccc1-c1ccc(O)cc1 [Cpd 98] | – | 7.24 | – | – | pIC50 [2]: 6.38; inhibition at 1 µM [2]: 97%; inhibition at 5 µM [2]: 102%

Row | Compound | h Binding % I (1 μM) [1] [%] | pKi [1] | inhibition at 1 µM [1] [%] | Emax at 12 µM [2] [%] | other results
24 | Cc1cc(NC(=O)CCc2ccc(C(C)(C)C)cc2)ccc1-c1ccc(CO)cc1 [Cpd 99] | – | 7.54 | – | – | pIC50 [2]: 6.68; inhibition at 1 µM [2]: 97%; inhibition at 5 µM [2]: 79%
25 | CC(C)(C)c1ccc(CCC(=O)Nc2ccc(-c3ccccc3O)c(F)c2)cc1 [Cpd 100] | – | 7.17 | – | – | Emax at 6 µM [2]: 96%; inhibition at 1 µM [2]: 87%
26 | CC(C)(C)c1ccc(CCC(=O)Nc2ccc(-c3ccc(O)cc3)c(F)c2)cc1 [Cpd 101] | – | 7.30 | – | – | Emax at 6 µM [2]: 71%; inhibition at 1 µM [2]: 95%
27 | CC(C)(C)c1ccc(CCC(=O)Nc2ccc(-c3ccc(CO)cc3)c(F)c2)cc1 [Cpd 102] | – | 7.41 | – | – | Emax at 6 µM [2]: 74%; inhibition at 1 µM [2]: 97%
28 | CC(C)(C)c1ccc(CCC(=O)Nc2ccccc2-c2ccncc2)cc1 [Cpd 103] | – | – | 1 | – | pIC50 [2]: 5.45
29 | CC(C)(C)c1ccc(CCC(=O)Nc2cccc(-c3ccncc3)c2)cc1 [Cpd 104] | – | 6.74 | 73 | 62 | –
30 | CC(C)(C)c1ccc(CCC(=O)Nc2ccccc2-c2cccnc2)cc1 [Cpd 105] | – | – | 1 | – | pIC50 [2]: 5.40
31 | CC(C)(C)c1ccc(CCC(=O)Nc2ccc(-c3cccnc3)cc2)cc1 [Cpd 107] | – | 6.92 | 82 | 78 | –
32 | CC(C)(C)c1ccc(CCC(=O)Nc2ccccc2-c2ccccn2)cc1 [Cpd 108] | – | – | 16 | 98 | pEC50 [2]: 6.03
33 | CC(C)(C)c1ccc(CCC(=O)Nc2cccc(-c3ccccn3)c2)cc1 [Cpd 109, 3-(4-tert-butyl-phenyl)-N-(3-pyridin-2-yl-phenyl)-propionamide hydrochloride] | – | – | 1 | 47 | –
34 | CC(C)(C)c1ccc(CCC(=O)Nc2ccc(-c3ccncc3)cc2)cc1 [Cpd 111, 3-(4-tert-butyl-phenyl)-N-(4-pyridin-4-yl-phenyl)-propionamide] | – | 6.77 | 61 | 119 | pEC50 [2]: 7.74
35 | CC(C)(C)c1ccc(CCC(=O)Nc2ccc(-c3cncnc3)cc2)cc1 [Cpd 113] | – | 6.49 | 67 | 101 | pEC50 [2]: 6.11
36 | CC(C)(C)c1ccc(CCC(=O)Nc2ccc(-c3ncccc3O)cc2)cc1 [Cpd 115] | 34 | – | – | – | % Response Relative to EC80 of Capsaicin (12 μM) [2]: 58%
37 | CC(C)(C)c1ccc(CCC(=O)Nc2cccc(-c3ncccn3)c2)cc1 [Cpd 116] | – | – | 1.1 | – | pIC50 [2]: 6.42
38 | CC(C)(C)c1ccc(CCC(=O)Nc2ccc(-c3cccc(O)c3)nc2)cc1 [Cpd 129] | – | 7.39 | 88 | 126 | pEC50 [2]: 7.77
39 | CC(C)(C)c1ccc(CCC(=O)Nc2ccc(-c3ccccc3O)nc2)cc1 [Cpd 132] | 45 | – | – | – | h % I (5 μM) [2]: 30%
40 | CC(C)(C)c1ccc(CCC(=O)Nc2ccc(-c3ccc(O)cc3)nc2)cc1 [Cpd 133] | – | 7.96 | 101 | 95 | –
41 | CC(C)(C)c1ccc(CCC(=O)Nc2ccc(-c3ccc(CO)cc3)nc2)cc1 [Cpd 135] | – | 7.51 | 90 | 79 | –
42 | CC(C)(C)c1ccc(CCC(=O)Nc2ccc(-c3cccnc3)nc2)cc1 [Cpd 136] | – | 6.99 | 84 | 78 | –
43 | CC(C)(C)c1ccc(CCC(=O)Nc2ccc(-c3ccncc3)nc2)cc1 [Cpd 137] | – | 7.03 | 66 | 96 | –
44 | CC(C)(C)c1csc(CCC(=O)Nc2ccc(-c3ccncc3)cc2)c1 [Cpd 138] | 61 | 6.34 | – | – | % Response Relative to EC80 of Capsaicin (12 μM) [2]: 113%
45 | O=C(CCc1ccc(C(F)(F)F)cc1)Nc1ccc(-c2cccnc2)cc1 [Cpd 142] | 45 | – | – | – | % Response Relative to EC80 of Capsaicin (12 μM) [2]: 78%
46 | O=C(CCc1ccc(C(F)(F)F)cc1)Nc1ccc(-c2ccncc2)cc1 [Cpd 143] | 44 | – | – | – | % Response Relative to EC80 of Capsaicin (12 μM) [2]: 111%
